The values that follow come from patent US20260317356A1, “SMALL MOLECULE MODULATORS OF OGG1” (AZKARRA THERAPEUTICS, INC., priority 2023, published 2026).

hOGG1, sequence (O15527 12-323): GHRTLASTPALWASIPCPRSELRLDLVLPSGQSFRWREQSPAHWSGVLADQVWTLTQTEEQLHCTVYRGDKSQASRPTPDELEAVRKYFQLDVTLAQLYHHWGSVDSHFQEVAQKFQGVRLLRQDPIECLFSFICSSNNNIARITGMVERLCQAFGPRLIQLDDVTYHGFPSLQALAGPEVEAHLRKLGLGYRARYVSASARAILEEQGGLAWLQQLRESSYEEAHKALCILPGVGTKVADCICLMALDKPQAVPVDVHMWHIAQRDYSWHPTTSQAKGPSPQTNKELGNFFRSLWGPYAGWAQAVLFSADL

The assay has as its target hOGG1 (Homo sapiens, UniProt O15527). Put plainly: Biochemical fluorescence assay to measure enzymatic activity of hOGG1 (OGG1/APEX IC50). Also noted: Protein His-hOGG1 (12-323) was prepared; His (N); host or cells: E. coli. The conditions noted are these: 1 nM OGG1+2 nM APEX+6 nM dsDNA (8-oxo-dG substrate); pH 7.5; RT 40 min; read-out: OGG1/APEX IC50. The procedure, abridged: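 Coupled glycosylase/AP-endonuclease read-out: 8-oxo-dG-containing dsDNA (6 nM) cleaved by 1 nM His-hOGG1 (12-323) plus 2 nM APEX1 over 40 min at room temperature, after 20 min enzyme–compound preincubation; buffer 20 mM Tris pH 7.5, 100 mM KCl, 0.1% BSA, 0.01% Tween. IC50 comes from sigmoidal 3-parameter fitting of % inhibition derived from TAMRA signal.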
Turning to `Cc1ccc(NC(=O)[C@H]2CC[C@@H](N3Cc4c(C)cccc4C3=O)CC2)c(O)c1` [Example 230, (1s,4s)-N-(2-Hydroxy-4-methylphenyl)-4-(4-methyl-1-oxoisoindolin-2-yl)cyclohexanecarboxamide], the IC50 was 1 to 10 µM. Next, `COc1ccc(NC(=O)[C@H]2CC[C@@H](N3Cc4c(C)cccc4C3=O)CC2)cc1C(F)(F)F` [Example 231, (1s,4s)-N-(4-Methoxy-3-(trifluoromethyl)phenyl)-4-(4-methyl-1-oxoisoindolin-2-yl)cyclohexanecarboxamide]: 0.1 to 1 µM; `Cc1ncc(NC(=O)[C@H]2CC[C@@H](N3Cc4c(C)cccc4C3=O)CC2)s1` [Example 232, (1s,4s)-4-(4-Methyl-1-oxoisoindolin-2-yl)-N-(2-methylthiazol-5-yl)cyclohexanecarboxamide]: greater than 10 µM. The value for `COc1cccc(NC(=O)[C@H]2CC[C@@H](N3Cc4c(C)cccc4C3=O)CC2)n1` [Example 233, (1s,4s)-N-(6-Methoxypyridin-2-yl)-4-(4-methyl-1-oxoisoindolin-2-yl)cyclohexanecarboxamide] was 1 to 10 µM; that for `COc1cc(NC(=O)[C@H]2CC[C@@H](N3Cc4c(C)cccc4C3=O)CC2)ccn1` [Example 234, (1s,4s)-N-(2-Methoxypyridin-4-yl)-4-(4-methyl-1-oxoisoindolin-2-yl)cyclohexanecarboxamide] was greater than 10 µM; that for `Cc1cnc(NC(=O)[C@H]2CC[C@@H](N3Cc4c(C)cccc4C3=O)CC2)s1` [Example 235, (1s,4s)-4-(4-Methyl-1-oxoisoindolin-2-yl)-N-(5-methylthiazol-2-yl)cyclohexanecarboxamide] was greater than 10 µM.

Take `Cc1ccc(NC(=O)[C@H]2CC[C@@H](N3Cc4c(C)cccc4C3=O)CC2)cc1C` [Example 236, (1s,4s)-N-(3,4-Dimethylphenyl)-4-(4-methyl-1-oxoisoindolin-2-yl)cyclohexanecarboxamide]: the IC50 was 1 to 10 µM. The value for `Cc1cccc2c1CN([C@H]1CC[C@@H](C(=O)Nc3ccc(Cl)c(Cl)c3)CC1)C2=O` [Example 237, (1s,4s)-N-(3,4-Dichlorophenyl)-4-(4-methyl-1-oxoisoindolin-2-yl)cyclohexanecarboxamide] was 0.1 to 1 µM; that for `COc1ccc(NC(=O)[C@H]2CC[C@@H](N3Cc4c(C)cccc4C3=O)CC2)cc1Cl` [Example 238, (1s,4s)-N-(3-Chloro-4-methoxyphenyl)-4-(4-methyl-1-oxoisoindolin-2-yl)cyclohexanecarboxamide] was 0.1 to 1 µM; that for `Cc1cccc2c1CN([C@H]1CC[C@@H](C(=O)Nc3nc(C)c(C)s3)CC1)C2=O` [Example 240, (1s,4s)-N-(4,5-Dimethylthiazol-2-yl)-4-(4-methyl-1-oxoisoindolin-2-yl)cyclohexanecarboxamide] was greater than 10 µM.

Take `Cc1cccc2c1CN([C@H]1CC[C@@H](C(=O)Nc3ccc(Cl)c(F)c3)CC1)C2=O` [Example 241, (1s,4s)-N-(4-Chloro-3-fluorophenyl)-4-(4-methyl-1-oxoisoindolin-2-yl)cyclohexanecarboxamide]: the IC50 is 0.1 to 1 µM. Next, `COc1ccc(NC(=O)[C@H]2CC[C@@H](N3Cc4c(C)cccc4C3=O)CC2)c(F)c1` [Example 242, (1s,4s)-N-(2-Fluoro-4-methoxyphenyl)-4-(4-methyl-1-oxoisoindolin-2-yl)cyclohexanecarboxamide]: 1 to 10 µM; `COc1c(F)cc(NC(=O)[C@H]2CC[C@@H](N3Cc4c(C)cccc4C3=O)CC2)cc1F` [Example 243, (1s,4s)-N-(3,5-Difluoro-4-methoxyphenyl)-4-(4-methyl-1-oxoisoindolin-2-yl)cyclohexanecarboxamide]: 0.1 to 1 µM. Next, `COc1ncc(NC(=O)[C@H]2CC[C@@H](N3Cc4c(C)cccc4C3=O)CC2)cc1C` [Example 244, (1s,4s)-N-(6-Methoxy-5-methylpyridin-3-yl)-4-(4-methyl-1-oxoisoindolin-2-yl)cyclohexanecarboxamide]: 0.1 to 1 µM.
